Columns and labels:
[1] = test system: Compound #64 resistant HCV 1b replicon cell lines vs wild type Huh-Luc-Neo replicon; assay: EC50 determination (HCV RNA, quantitative PCR) in resistant vs wild type replicon clones; format: cell-based, HCV genotype 1b
Description: An HCV Replicon cell line (luc-neo/ET) and assay (Lohman et al, Science 1999, 285, 110) was used in the present invention. Specifically the HCV 1b Replicon cell line Huh-Luc-Neo was subjected to resistance selection by growth in culture in the presence of Compound #64 (Table 1) according to methods described by Mo et al., Antimicro. Agents Chemotherapy, 49, 4305-4314, 2005. Huh-Luc-Neo cells were initially subjected to selection with 0.5 μM Compound #64 (Table 1) and selection pressure was increased gradually up to 2 μM COMPOUND #64 (TABLE 1) over a period of 7 to 9 weeks and 5 cell lines derived from individual colonies were isolated and expanded. A specific clone resistant to 2 μM Compound #64 (Table 1) (Clone Comp.64-10R4) was the subjected to further selection pressure at increasing concentrations of Compound #64 (Table 1) and a replicon resistant to 10 μM Compound #64 (Table 1) was isolated (Clone Comp.64-50R4). The wild type Huh-Luc-Neo replicon cell line was cultured in parallel with the selections and characterized in a similar fashion to the resistant clones.
(§1) EC50 determinations were performed with Compound #64 (Table 1) vs. the wild type Huh-Luc-Neo replicon cell line and the 5 resistant replicon cell lines. Resistant and wild type replicons were plated in 96 well plates (5000-7000 cells/well) and treated with compound at varying concentrations (Compound #64 (Table 1)) for 72 hours. Cells were then lysed and RNA was isolated (Qiagen RNA Easy 96 kit) according to the manufacturer's recommendations. HCV RNA levels were then measured and EC50 values were determined by cDNA synthesis and quantitative PCR using HCV specific primers and GAPDH primers as controls (Example 55, Lohman et al, Science 1999, 285, 110). The effect of the compounds on inhibition of cell viability was performed on cells treated in parallel with using the Cell Titre Glo Assay Kit (Promega) according to the manufacturer's recommendations (Example 56). CC50s for the compound vs. the wild type and resistant replicons were determined to be >50 μM.

[2] = test system: HCV genotype 1b replicon (Huh-Luc-Neo cells); assay: HCV Replicon Luciferase Assay; format: cell-based; conditions: Hepatitis C virus; Huh-Luc-Neo cells, genotype 1b, 72 h; read-out: HCV-1b Replicon Inhibition*, Luciferase (EC50)
[3] = Cell Titer-Glo Cell Viability Assay, genotype 1b cells; format: cell-based; conditions: human, Huh-Luc-Neo (HCV genotype 1b replicon) cells, HCV genotype 1b assays, read-out: Cytotoxicity* (CC50)
Method in brief: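 Huh-Luc-Neo (genotype 1b) or En5-3/Htat2ANeo (genotype 1a) cells, 5000-7000/well in phenol red-free DMEM, treated with 8-9 compound concentrations for 72 h at 37° C, 5% CO2. Viability read by CellTiter-Glo luminescence after 5 min shaking at room temperature.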

[4] = test system: HCV genotype 1b replicon (Huh-Luc-Neo cells); assay: HCV Replicon RNA (Taqman) Assay, genotype 1b; format: cell-based; conditions: Hepatitis C virus; Huh-Luc-Neo cells, genotype 1b, HCV RNA, 72 h; read-out: HCV-1b Replicon Inhibition*, Taqman (EC50)
[5] = Cell Titre Glo cell viability on wild type and resistant replicons; format: cell-based; conditions: human
Description: as §1

[6] = test system: HCV Genotype 1b luc-neo/ET replicon with Y2065H mutation in NS5A; assay: Luciferase EC50 in Huh7-Lunet cells with luc-neo/ET/Y2065H mutant vs parental luc-neo/ET replicon; format: cell-based; conditions: transient replicons, 72 h
Description: Resistance of Compound #64 (Table 1) and related pyrazoles was then determined by treating Huh7-Lunet cells (Koutsoudakis et al, J. Virol. 81(2):588-98, 2007) transiently electroporated with RNAs transcribed from either the luc-neo/ET/Y2065H mutant and the parental luc-neo/ET replicons (Blight et al, J. Virol. 77(5):3181-90, 2003). Huh7-Lunet expressing the luc-neo/ET/Y2065H mutant and the parental luc-neo/ET replicons were treated with selected compounds for 72 hours. EC50 and CC50 values were determined as described in the HCV Replicon Luciferase Assay and CellTiter-Glo Cell Viability Assay protocols. […] CC50s for the compound vs. the luc-neo/ETIY2065H mutant and parental luc-neo/ET replicons were determined to be>33 μM.

Cc1ccc(O)c(-c2nn(C)cc2C#Cc2ccc(NC(=O)[C@H]3CCCCN3C(=O)C(NC(=O)OC(C)(C)C)c3ccccc3)cc2)c1 (stereo partly drawn) [64 (Table 1)]
EC50 shift, resistant replicon vs wild type replicon ([1]; replicon resistant to 10 μM Compound #64, second NS5A mutation Y2065H): > 75 fold | EC50 Resistant Replicon/EC50 Wild Type Replicon ([1]; resistant clone Comp. 64-10R3, resistant conc. 2 μM): 1.5 | EC50 Resistant Replicon/EC50 Wild Type Replicon ([1]; resistant clone Comp. 64-10R4, resistant conc. 2 μM): 3.48 | EC50 Resistant Replicon/EC50 Wild Type Replicon ([1]; resistant clone Comp. 64-10R5, resistant conc. 2 μM): 2.92 | EC50 Resistant Replicon/EC50 Wild Type Replicon ([1]; resistant clone Comp. 64-10R6, resistant conc. 2 μM): 2.18 | EC50 Resistant Replicon/EC50 Wild Type Replicon ([1]; resistant clone Comp. 64-10R8, resistant conc. 2 μM): 3 | EC50 Resistant Replicon/EC50 Wild Type Replicon ([1]; resistant clone Comp. 64-50R4, resistant conc. 10 μM): >75 | EC50 [2]: < 1 µM | CC50 at 72 h [3]: > 100 µM | EC50 [4]: < 1 µM | CC50 at 72 h [5]: > 50 µM | EC50 Luc-neo-ET-Y2065H/EC50 Luc-neo-ET [6]: >65

Reference: patent publication US7923004B2 (priority 2006, dated 2011)
